Data: paper PMC4865535, “Effect of carbamazepine on dolutegravir pharmacokinetics and dosing recommendation” (European Journal of Clinical Pharmacology, 2016)
Values joined by “and” are separate entries in the source; they are usually repeats but may differ in a detail not shown here. Identical values can stand only once. Like-named read-outs stand apart in the source and are kept apart here.

Experiments:
[1] = Safety evaluations (adverse events, laboratory tests) in the crossover study; assay type: in vivo, human; details: for Subjects who experienced at least one AE: by treatment period; for Drug-related adverse events: ALT increased / Drug-related adverse events: Any event / Drug-related adverse events: Asthenia / Drug-related adverse events: Cognitive disorder / Drug-related adverse events: Drug reaction with eosinophilia and systemic symptoms / Drug-related adverse events: Fatigue / Drug-related adverse events: Headache / Drug-related adverse events: Hyponatremia / Drug-related adverse events: Leukopenia / Drug-related adverse events: Lymphopenia / Drug-related adverse events: Nausea / Drug-related adverse events: Pain in extremity / Drug-related adverse events: Photosensitivity reaction / Drug-related adverse events: Pyrexia / Drug-related adverse events: Rash maculopapular / Drug-related adverse events: Thirst / Drug-related adverse events: Thrombocytopenia: DTG alone n = 16, CBZ alone n = 16, DTG + CBZ n = 14
Description: Safety evaluations included the monitoring of adverse events (AEs), physical examinations, clinical chemistry laboratory tests, vital signs, and electrocardiograms. Additionally, assessment of Columbia suicide severity rating scale scores was performed throughout the study, because CBZ exposure (along with exposure to several other AEDs) has been associated with increased risk of suicidal ideation and depression.

[2] = design: method as in ref 11 = [11]; 11. Tegretol ® (carbamazepine) [package insert]. East Hanover: Novartis; 2014; details: cited from earlier work
[3] = Steady-state plasma DTG pharmacokinetics with and without CBZ (phase I open-label fixed-sequence crossover study); assay type: in vivo, human; details: for half-life: read-out: t1/2 (terminal elimination half-life) of DTG, geometric mean (CV%) (converted)
Description: This was a phase I, single-site, open-label, fixed-sequence, crossover study with three treatment periods to evaluate the effect of an oral extended-release formulation of CBZ on the steady-state PK of orally administered DTG in 16 healthy subjects. The study was conducted in accordance with the principles of the Declaration of Helsinki. A written informed consent was obtained from all subjects, and the protocol was approved by the institutional review board of the study site. The trial was registered at ClinicalTrials.gov (NCT01967771; protocol number: 200901). During period 1, subjects received DTG 50 mg once daily as a single agent for days 1 to 5. During period 2, subjects received CBZ alone and the dose was escalated: 100 mg twice daily for days 1 to 3, 200 mg twice daily for days 4 to 6, and 300 mg twice daily for days 7 to 16. During period 3, DTG 50 mg once daily was co-administered with CBZ 300 mg twice daily for days 1 to 5. There was no washout between treatment periods. As CBZ is recommended to be given with food per product information, all doses in the testing unit, including those on PK collection days, were administered orally in the morning 30 min after the start of the moderate-fat meal, and subjects were asked to do the same when dosing outside the unit. Subjects were housed at the clinical research unit from period 1, day 1, until the morning of period 2, day 8, as well as from period 2, day 16, through period 3, day 6. Phone call reminders and pill counts were employed when subjects self-administered CBZ as outpatients during period 2, days 8 to 16. […] Plasma samples were analyzed for DTG by PPD, Inc. (Middleton, WI) using a validated analytical method based on protein precipitation with acetonitrile containing the stable isotope-labeled internal standard (GSK1349572-d7-^15N), followed by high-performance liquid chromatography/tandem mass spectrometry analysis. The lower limit of quantification for DTG in plasma was 20 ng/mL, and the upper limit of quantification was 20,000 ng/mL. Precision and accuracy were evaluated by replicate analyses of human plasma quality control samples prepared at five concentrations: 60, 160, 640, 2400, and 15,200 ng/mL. Precision, measured as the percent coefficient of variation, ranged from 3.0 to 5.9 % across the quality control range. […] Both were within acceptance standards of 15 %. A non-compartmental PK analysis of the DTG concentration-time data was conducted by Phast Clinical Data, Inc. (Raleigh, NC). Pharmacokinetic analyses of plasma DTG concentration-time data were analyzed using Model 200 (for extravascular administration) of Phoenix WinNonlin version 6.3 (Pharsight Corporation, St. Louis, MO). Plasma PK parameters for DTG were calculated using actual elapsed times from dosing. The individual PK parameters that were determined included area under the curve from time zero to the end of the dosing interval (AUC(0-τ)), maximum observed plasma concentration (Cmax), plasma concentration at the end of the dosing interval (Cτ), oral clearance, and terminal half-life. This study was designed to estimate the magnitude of drug-interaction effect of CBZ on the PK parameters of DTG. No formal hypothesis was tested. Instead, an estimation approach was used to evaluate the effect of CBZ on DTG PK. Pharmacokinetic parameters were log-transformed and analyzed by analysis of variance to determine the point estimate and associated 90 % confidence intervals for the difference between test treatment (DTG + CBZ) and reference treatment (DTG alone). These values were then back-transformed to calculate the point and interval estimates for test-to-reference treatment ratios on the original scale. Geometric least-squares mean ratios and 90 % confidence intervals were generated by the mixed-effect model for within-subject treatment comparisons.

[4] = design: method as in PMID 25146692, PMID 23075918; details: DTG co-administered with tipranavir/ritonavir, efavirenz, and rifampin; cited from earlier work
[5] = system: cytochrome P450 (CYP) 3A4; design: method as in PMID 23132334; details: minor component; primarily metabolized by UGT1A1; cited from earlier work
[6] = system: P-glycoprotein (P-gp); design: method as in PMID 23132334; details: cited from earlier work
[7] = system: CYP isozymes; design: method as in PMID 23132334; details: in vitro; cited from earlier work
[8] = system: UGT1A1; design: method as in PMID 23132334; details: in vitro; cited from earlier work
[9] = system: UGT2B7; design: method as in PMID 23132334; details: in vitro; cited from earlier work
[10] = system: P-gp; design: method as in PMID 23132334; details: in vitro; cited from earlier work
[11] = system: breast cancer resistance protein; design: method as in PMID 23132334; details: in vitro; cited from earlier work
[12] = system: OATP1B1; design: method as in PMID 23132334; details: in vitro; cited from earlier work
[13] = system: OATP1B3; design: method as in PMID 23132334; details: in vitro; cited from earlier work
[14] = system: MRP2; design: method as in PMID 23132334; details: in vitro; cited from earlier work
[15] = system: CYP1A2; design: method as in PMID 23132334; details: in vitro; cited from earlier work
[16] = system: CYP2B6; design: method as in PMID 23132334; details: in vitro; cited from earlier work
[17] = system: CYP3A4; design: method as in PMID 23132334; details: in vitro; cited from earlier work
[18] = system: CYP3A4; design: method as in ref 1 = [1]; 1. Tivicay ® (dolutegravir) [package insert]. Research Triangle Park: ViiV Healthcare; 2014; details: midazolam as probe substrate for CYP3A4, healthy subjects; cited from earlier work
[19] = DTG 50 mg once daily alone, day 5 of period 1, n = 16
[20] = DTG co-administered with CBZ vs DTG alone
[21] = DTG co-administered with CBZ, 14 subjects with PK results in both periods

## NC(=O)N1c2ccccc2C=Cc2ccccc21 [CBZ, Carbamazepine]
[1]; healthy subjects
  Subjects who experienced at least one AE: six
  Drug-related adverse events: ALT increased: 1 (6) n (%)
  Drug-related adverse events: Any event: 6 (38) n (%)
  Drug-related adverse events: Asthenia: 1 (6) n (%)
  Drug-related adverse events: Cognitive disorder: 1 (6) n (%)
  Drug-related adverse events: Drug reaction with eosinophilia and systemic symptoms: 1 (6) n (%)
  Drug-related adverse events: Fatigue: 0 n (%)
  Drug-related adverse events: Headache: 2 (13) n (%)
  Drug-related adverse events: Hyponatremia: 1 (6) n (%)
  Drug-related adverse events: Leukopenia: 1 (6) n (%)
  Drug-related adverse events: Lymphopenia: 1 (6) n (%)
  Drug-related adverse events: Nausea: 1 (6) n (%)
  Drug-related adverse events: Pain in extremity: 1 (6) n (%)
  Drug-related adverse events: Photosensitivity reaction: 0 n (%)
  Drug-related adverse events: Pyrexia: 1 (6) n (%)
  Drug-related adverse events: Rash maculopapular: 1 (6) n (%)
  Drug-related adverse events: Thirst: 1 (6) n (%)
  Drug-related adverse events: Thrombocytopenia: 2 (13) n (%)
[1]; one subject with suspected grade 2 hypersensitivity syndrome on 300 mg CBZ twice daily, period 2, baseline 8800 cells/mm^3
  White blood cell count (decrease): 3800 cells/mm^3
[1]; period 2 (CBZ alone)
  Subjects permanently discontinued because of AEs: Two
[1]; same subject on 300 mg CBZ twice daily, 159,000 3 days before
  Platelet count (low): 78,000 cells/mm^3
[1]; same subject on 300 mg CBZ twice daily, grade 2
  ALT level (high): 151 IU/L
[2]; following chronic dosing
  half-life: 12 to 17 h
[2]; following single dosing
  half-life: 25 to 65 h

## C[C@@H]1CCO[C@H]2Cn3cc(C(=O)NCc4ccc(F)cc4F)c(=O)c(O)c3C(=O)N12 [DTG, Dolutegravir]
[3]; [19]
  CL/F (oral clearance) of DTG, geometric mean (CV%): 0.929 (21.4) L/h
  Cτ of plasma DTG, geometric mean (CV%): 1.20 (39.1) μg/mL
[3]; [20]
  Increase of dolutegravir clearance: 95%
  Reduction of geometric mean AUC(0-τ) of DTG: 49%
  Reduction of geometric mean Cmax of DTG: 33%
  Reduction of geometric mean Cτ of DTG: 73% and ~ 73%
[3]; [21]
  Reduction in AUC(0-τ) on an individual subject basis: 27 to 58%
  Reduction in Cτ on an individual subject basis: 53 to 82%
[3]; human, plasma, oral, DTG 50 mg once daily + CBZ 300 mg twice daily, day 5 of period 3, n = 14
  half-life: 7.31 h
[3]; human, plasma, oral, DTG 50 mg once daily alone, day 5 of period 1, n = 16, read-out: Cmax of plasma DTG, geometric mean (CV%)
  Cmax: 4160 ng/mL
[3]; human, plasma, oral, DTG 50 mg once daily alone, day 5 of period 1, n = 16
  half-life: 12.9 h
[3]; human, plasma, DTG 50 mg once daily alone, day 5 of period 1, oral with moderate-fat meal, healthy subjects, n = 16, read-out: AUC(0-τ) of plasma DTG, geometric mean (CV%)
  AUC: 53800 ng·h/mL
[1]; DTG alone and co-administered with CBZ, healthy subjects
  Tolerability: well tolerated
[1]; healthy subjects
  Subjects who experienced at least one AE: No subjects experienced AEs
  Drug-related adverse events: ALT increased: 0 n (%)
  Drug-related adverse events: Any event: 0 n (%)
  Drug-related adverse events: Asthenia: 0 n (%)
  Drug-related adverse events: Cognitive disorder: 0 n (%)
  Drug-related adverse events: Drug reaction with eosinophilia and systemic symptoms: 0 n (%)
  Drug-related adverse events: Fatigue: 0 n (%)
  Drug-related adverse events: Headache: 0 n (%)
  Drug-related adverse events: Hyponatremia: 0 n (%)
  Drug-related adverse events: Leukopenia: 0 n (%)
  Drug-related adverse events: Lymphopenia: 0 n (%)
  Drug-related adverse events: Nausea: 0 n (%)
  Drug-related adverse events: Pain in extremity: 0 n (%)
  Drug-related adverse events: Photosensitivity reaction: 0 n (%)
  Drug-related adverse events: Pyrexia: 0 n (%)
  Drug-related adverse events: Rash maculopapular: 0 n (%)
  Drug-related adverse events: Thirst: 0 n (%)
  Drug-related adverse events: Thrombocytopenia: 0 n (%)
[4]
  Reduction of DTG AUC(0-τ): 36 to 49%
  Reduction of DTG Cτ: 72 to 76%
[5]
  Component of metabolism via CYP3A4: approximately 10%
[6]
  Substrate of P-gp: substrate of P-glycoprotein
[7]
  Direct inhibition of CYP isozymes: minimal or no direct inhibition
[8]
  Direct inhibition of UGT1A1: minimal or no direct inhibition
[9]
  Direct inhibition of UGT2B7: minimal or no direct inhibition
[10]
  Direct inhibition of P-gp: minimal or no direct inhibition
[11]
  Direct inhibition of breast cancer resistance protein: minimal or no direct inhibition
[12]
  Direct inhibition of OATP1B1: minimal or no direct inhibition
[13]
  Direct inhibition of OATP1B3: minimal or no direct inhibition
[14]
  Direct inhibition of MRP2: minimal or no direct inhibition
[15]
  Induction of CYP1A2: not an inducer
[16]
  Induction of CYP2B6: not an inducer
[17]
  Induction of CYP3A4: not an inducer
[18]
  Effect on midazolam exposure: no significant effect
